Laboratory results reported in patent US7928238B2, “1,2,3,4-tetrahydro-quinoline derivatives as CETP inhibitors” (Janssen Pharmaceutica NV, priority 2006, dated 2011).
Several values for one entry are separate records, joined by “and”; a condition that tells them apart may be missing. Equal values may be shown once.

Biological target: T1, CETP (Homo sapiens, UniProt P11597)
T1 construct: from tissue; host or cells: human plasma from normal volunteers
T1 sequence (P11597 18-493): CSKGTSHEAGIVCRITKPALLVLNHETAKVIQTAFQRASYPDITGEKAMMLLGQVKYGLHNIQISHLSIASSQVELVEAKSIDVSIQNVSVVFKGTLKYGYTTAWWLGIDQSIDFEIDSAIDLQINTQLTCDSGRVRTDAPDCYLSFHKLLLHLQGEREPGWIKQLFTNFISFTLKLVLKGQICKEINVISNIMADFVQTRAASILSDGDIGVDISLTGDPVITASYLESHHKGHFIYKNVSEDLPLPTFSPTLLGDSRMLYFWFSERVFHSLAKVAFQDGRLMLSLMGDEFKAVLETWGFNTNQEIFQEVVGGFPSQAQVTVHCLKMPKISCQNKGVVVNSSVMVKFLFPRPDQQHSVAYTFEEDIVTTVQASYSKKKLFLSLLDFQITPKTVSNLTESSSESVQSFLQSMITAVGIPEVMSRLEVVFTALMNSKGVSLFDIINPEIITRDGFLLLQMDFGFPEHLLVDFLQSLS
Assay: CETP in vitro assay (Amersham kit TRKQ7005; modified protocol in human plasma, [3H]CE-HDL transfer)
Assay type: biochemical
Conditions: for % Inhibition @ 1 μM / inhibition at 1 µM: 1 μM compound; for inhibition at 1 µM: read-out: % Inhibition @ 1 μM; for IC50: from plots of % control versus compound concentration
Experimental: The CETP inhibitory activity of the compounds was determined using a commercially available kit from Amersham Biosciences (Catalog #TRKQ7005).
Briefly, 80 μl of human plasma (obtained from normal volunteers), approximately 25 μg/ml (20 μl) of [^3H]CE-HDL (Amersham Biosciences from kit TRKQ7005) and 1 μl of compound dissolved in DMSO was incubated for at least 4 hrs at 37° C. and non-specific transfer was determined by incubating a corresponding plate at 4° C. (blank). After the incubation period, 10 μl of a solution of 1% Dextralip 50/0.5M MgCl2, pH 7.4 was added, vortexed and incubated at room temperature for 10 min. The plate was then centrifuged for 30 min at 10° C. at 300 rpm in a Sorvall RT6000B centrifuge. Fifty microliters of the supernatant was transferred to a Picoplate (Packard) containing 100 μl of Microscint 40 (Perkin Elmer) and mixed for 30 min using a plate mixer. The radioactivity was counted using a TopCount (Perkin Elmer) and the % control was determined in the samples using the following formula: % transfer relative to vehicle controls (% control)=[cpm blank−cpm test]/cpm blank/cpm control]×100. IC50s were calculated from plots of the % control versus compound concentration.

| SMILES | % Inhibition @ 1 μM | inhibition at 1 µM | IC50 |
| --- | --- | --- | --- |
| OC(CN1c2cccc(-c3ccc(OC(F)(F)F)cc3)c2CCC1c1cccc(OC(F)(F)C(F)F)c1)C(F)(F)F (centres unmarked) [Compound 8, 1,1,1-Trifluoro-3-[2-[3-(1,1,2,2-tetrafluoro-ethoxy)-phenyl]-5-(4-trifluoromethoxy-phenyl)-3,4-dihydro-2H-quinolin-1-yl]-propan-2-ol] | 29% and 36% | – | – |
| C[C@@H](O)CN1c2cccc(-c3cccc(OC(F)(F)F)c3)c2CC[C@@H]1c1cccc(OC(F)(F)F)c1 [Compound 53] | 57% and 77% and 84% | – | 90 nM and 199 nM and 85 nM |
| CCc1cc(Oc2cccc3c2CCC(c2cccc(OC(F)(F)C(F)F)c2)N3CC(O)C(F)(F)F)ccc1Cl (centres unmarked) [Compound 84, 3-{5-(4-Chloro-3-ethyl-phenoxy)-2-[3-(1,1,2,2-tetrafluro-ethoxy)-phenyl]-3,4-dihydro-2H-quinolin-1-yl}-1,1,1-trifluoro-propan-2-ol] | 62% | – | 600 nM |
| CCC1CCc2c(-c3cccc(OC(F)(F)F)c3)cccc2N1CC(O)C(F)(F)F (centres unmarked) [Compound 35, 3-[2-Ethyl-5-(3-trifluoromethoxy-phenyl)-3,4-dihydro-2H-quinolin-1-yl]-1,1,1-trifluoro-propan-2-ol] | 43% and 45% | – | – |
| OC(CN1c2cccc(-c3cccc(Cl)c3)c2CCC1c1cccc(OC(F)(F)C(F)F)c1)C(F)(F)F (centres unmarked) [Compound 16, 3-{5-(3-Chloro-phenyl)-2-[3-(1,1,2,2-tetrafluoro-ethoxy)-phenyl]-3,4-dihydro-2H-quinolin-1-yl}-1,1,1-trifluoro-propan-2-ol] | – | 55% | – |
| OC(CN1c2cccc(-c3cccc(OC(F)(F)F)c3)c2CCC1c1cccc(Cl)c1)C(F)(F)F (centres unmarked) [Compound 30, 3-[2-(3-Chloro-phenyl)-5-(3-trifluoromethoxy-phenyl)-3,4-dihydro-2H-quinolin-1-yl]-1,1,1-trifluoro-propan-2-ol] | 13% | – | – |
| COc1cccc(-c2cccc3c2CC[C@@H](c2cccc(OC(F)(F)F)c2)N3C[C@@H](C)O)c1 [Compound 60] | – | 5% | – |
| OC(CN1c2cccc(-c3cccc(OC(F)(F)F)c3)c2CCC1c1cccc(C(F)(F)F)c1)C(F)(F)F (centres unmarked) [Compound 18, 1,1,1-Trifluoro-3-[5-(3-trifluoromethoxy-phenyl)-2-(3-trifluoromethyl-phenyl)-3,4-dihydro-2H-quinolin-1-yl]-propan-2-ol] | 40% and 35% | – | 2900 nM |
| OC(CN1c2cccc(-c3ccc(C(F)(F)F)cc3)c2CCC1c1cccc(OC(F)(F)C(F)F)c1)C(F)(F)F (centres unmarked) [Compound 3, 1,1,1-Trifluoro-3-[2-[3-(1,1,2,2-tetrafluoro-ethoxy)-phenyl]-5-(4-trifluoromethyl-phenyl)-3,4-dihydro-2H-quinolin-1-yl]-propan-2-ol] | 85% | – | 500 nM |
| OC(CN1c2cccc(-c3cccc(OC(F)(F)F)c3)c2CCC1C1CCCCC1)C(F)(F)F (centres unmarked) [Compound 37, 3-[2-Cyclohexyl-5-(3-trifluoromethoxy-phenyl)-3,4-dihydro-2H-quinolin-1-yl]-1,1,1-trifluoro-propan-2-ol] | 11% | – | – |
| OC(CN1c2cccc(-c3cccc(OC(F)(F)F)c3)c2CCC1C1CCCCC1)C(F)(F)F (centres unmarked) [Compound 38, 3-[2-Cyclohexyl-5-(3-trifluoromethoxy-phenyl)-3,4-dihydro-2H-quinolin-1-yl]-1,1,1-trifluoro-propan-2-ol] | 2% | – | – |
| COC[C@@H](O)CN1c2cccc(-c3cccc(OC(F)(F)F)c3)c2CC[C@H]1c1cccc(OC(F)(F)F)c1 [Compound 52] | – | 0% | – |
| C[C@@H](O)CN1c2cccc(-c3cccc(Cl)c3)c2CC[C@H]1c1cccc(OC(F)(F)F)c1 [Compound 41] | – | 3% | – |

Next, values leading:

| % Inhibition @ 1 μM | inhibition at 1 µM | IC50 | SMILES |
| --- | --- | --- | --- |
| 36% | 46% | 30 nM | O[C@H](CN1c2cccc(-c3cccc(OC(F)(F)F)c3)c2CC[C@H]1c1cccc(OC(F)(F)C(F)F)c1)C(F)(F)F [Compound 81, (2S, αR)-3,4-Dihydro-2-[3-(1,1,2,2-tetrafluoroethoxy)phenyl]-5-[3-(trifluoromethoxy)phenyl]-α-(trifluoromethyl)-1(2H)-quinolineethanol] |
| 50% and 26% | – | – | COc1cccc(-c2cccc3c2CCC(c2cccc(OC(F)(F)C(F)F)c2)N3CC(O)C(F)(F)F)c1 (centres unmarked) [Compound 73, 1,1,1-Trifluoro-3-{5-(3-methoxy-phenyl)-2-[3-(1,1,2,2-tetrafluoro-ethoxy)-phenyl]-3,4-dihydro-2H-quinolin-1-yl}-propan-2-ol] |
| 49% and 61% | – | 345 nM | CC(C)Oc1cccc(-c2cccc3c2CCC(c2cccc(OC(F)(F)C(F)F)c2)N3CC(O)C(F)(F)F)c1 (centres unmarked) [Compound 68, 1,1,1-Trifluoro-3-{5-(3-isopropoxy-phenyl)-2-[3-(1,1,2,2-tetrafluoro-ethoxy)-phenyl]-3,4-dihydro-2H-quinolin-1-yl}-propan-2-ol] |
| – | 39% | – | O=Cc1cccc(-c2cccc3c2CCC(c2cccc(OC(F)(F)C(F)F)c2)N3CC(O)C(F)(F)F)c1 (centres unmarked) [Compound 63, 3-[2-[3-(1,1,2,2-Tetrafluoro-ethoxy)-phenyl]-1-(3,3,3-trifluoro-2-hydroxy-propyl)-1,2,3,4-tetrahydro-quinolin-5-yl]-benzaldehyde] |
| 38% | 57% | – | OC(CN1c2cccc(-c3cccnc3)c2CCC1c1cccc(OC(F)(F)C(F)F)c1)C(F)(F)F (centres unmarked) [Compound 76, 1,1,1-Trifluoro-3-{5-pyridin-3-yl-2-[3-(1,1,2,2-tetrafluoro-ethoxy)-phenyl]-3,4-dihydro-2H-quinolin-1-yl}-propan-2-ol] |
| 60% and 65% | – | 181 nM and 374 nM | CC(C)c1cccc(-c2cccc3c2CCC(c2cccc(OC(F)(F)C(F)F)c2)N3CC(O)C(F)(F)F)c1 (centres unmarked) [Compound 66, 1,1,1-Trifluoro-3-{5-(3-isopropyl-phenyl)-2-[3-(1,1,2,2-tetrafluoro-ethoxy)-phenyl]-3,4-dihydro-2H-quinolin-1-yl}-propan-2-ol] |
| 34% | – | – | OC(CN1c2cccc(-c3cccc(OC(F)(F)F)c3)c2CCC1c1cccc(OC(F)(F)F)c1)C(F)(F)F (centres unmarked) [Compound 32, 3-[2,5-Bis-(3-trifluoromethoxy-phenyl)-3,4-dihydro-2H-quinolin-1-yl]-1,1,1-trifluoro-propan-2-ol] |
| 75% and 62% | – | 160 nM and 93 nM | COc1cccc(-c2cccc3c2CCC(c2cccc(OC(F)(F)C(F)F)c2)N3CC(O)C(F)(F)F)c1 (centres unmarked) [Compound 72, 1,1,1-Trifluoro-3-{5-(3-methoxy-phenyl)-2-[3-(1,1,2,2-tetrafluoro-ethoxy)-phenyl]-3,4-dihydro-2H-quinolin-1-yl}-propan-2-ol] |
| 37% | – | – | OC(CN1c2cccc(-c3cccc(C(F)(F)F)c3)c2CCC1c1cccc(OC(F)(F)C(F)F)c1)C(F)(F)F (centres unmarked) [Compound 14] |
| 22% | – | – | CC(C)C(O)CN1c2cccc(-c3cccc(OC(F)(F)F)c3)c2CCC1c1cccc(OC(F)(F)F)c1 (centres unmarked) [Compound 46, 1-[2,5-Bis-(3-trifluoromethoxy-phenyl)-3,4-dihydro-2H-quinolin-1-yl]-3-methyl-butan-2-ol] |
| 69% and 59% | 61% | 63 nM and 39 nM | C[C@@H](O)CN1c2cccc(-c3cccc(OC(F)(F)F)c3)c2CC[C@@H]1c1cccc(OC(F)(F)C(F)F)c1 [Compound 70, (αR,2R)-3,4-Dihydro-α-methyl-2-[3-(1,1,2,2-tetrafluoroethoxy)phenyl]-5-[3-(trifluoromethoxy)phenyl]-1(2H)-quinolineethanol] |
| 74% and 84% | – | 326 nM | CC(C)C(O)CN1c2cccc(-c3cccc(OC(F)(F)F)c3)c2CCC1c1cccc(OC(F)(F)F)c1 (centres unmarked) [Compound 45, 1-[2,5-Bis-(3-trifluoromethoxy-phenyl)-3,4-dihydro-2H-quinolin-1-yl]-3-methyl-butan-2-ol] |
| 60% and 66% | – | 380 nM and 255 nM | OC(CN1c2cccc(-c3cccs3)c2CCC1c1cccc(OC(F)(F)C(F)F)c1)C(F)(F)F (centres unmarked) [Compound 74, 1,1,1-Trifluoro-3-{2-[3-(1,1,2,2-tetrafluoro-ethoxy)-phenyl]-5-thiophen-2-yl-3,4-dihydro-2H-quinolin-1-yl}-propan-2-ol] |
| 59% and 74% | – | 582 nM | COc1cccc(C2CCc3c(-c4cccc(OC(F)(F)F)c4)cccc3N2CC(O)C(F)(F)F)c1 (centres unmarked) [Compound 25, 1,1,1-Trifluoro-3-[2-(3-methoxy-phenyl)-5-(3-trifluoromethoxy-phenyl)-3,4-dihydro-2H-quinolin-1-yl]-propan-2-ol] |
| 98% and 87% | – | 96 nM | OC(CN1c2cccc(-c3cccc(C(F)(F)F)c3)c2CCC1c1cccc(OC(F)(F)C(F)F)c1)C(F)(F)F (centres unmarked) [Compound 13] |
